Results taken from article PMC11099041, “Tissue distribution and retention drives efficacy of rapidly clearing VHL-based PROTACs” (Communications Medicine, 2024).

Tests used:
[1] = rat, in vivo
Source text: Male Sprague Dawley rats, intact or bile-cannulated, were from Envigo RMS, Inc. The animals were acclimated to study conditions for five days prior to dose administration. During acclimation, animals were individually housed in suspended, stainless steel, wire-mesh cages. During the test period, animals were placed in Nalgene cages designed for the collection of urine, feces, and bile. Certified Rodent Diet #2016C or 2016CM (Envigo RMS, Inc.) were provided ad libitum. Water was provided fresh daily. Environmental controls for the animal room were set to maintain a temperature of 20-26 °C, a relative humidity of 50 ± 20%, and a 12-hour light/12-hour dark cycle. […] Three BDC rats were used for collection of bile, urine, and feces, five intact rats for collection of plasma, blood, urine, feces, and tissues, and eight intact rats for collection of blood and carcasses for QWBA. […] The vehicle for the IV dose was 20% 2-hydroxypropyl-β-cyclodextrin (HP-β-CD) in 50 mM sodium acetate buffer, pH 4.0. […] The supernatant was removed, and the formulation appeared to be a very slight yellow solution. Stability was checked by HPLC analysis of pre- and post-dose aliquots. Animals were not fasted. The actual amount administered was determined by weighing the dose syringe before and after dose administration. The IV dose of 4 mg/kg was administered via a tail vein. For QWBA rats, one animal/time point was prepared for QWBA at approximately 0.25, 1, 4, 8, 24, 48, 168, and 336 hours. […] Blood was maintained on wet ice until being aliquoted for radioanalysis and centrifuged to obtain plasma. […] Each carcass was drained, blotted dry, placed into an appropriately labeled bag, and placed on dry ice or stored at ~-70 °C for at least 2 hours. The frozen carcasses were embedded in chilled carboxymethylcellulose and frozen into blocks. Embedded carcasses were stored at ~-20 °C in preparation for autoradiographic analysis. The samples were stored at -70 °C before analysis. […] Prior to section collection, standards fortified with ^14C radioactivity were placed into the frozen block containing the carcass and were used for monitoring the uniformity of section thickness. Appropriate sections were collected on adhesive tape at 40 μm thickness, in a Leica CM 3600 cryomicrotome in accordance with Covance standard operating procedures. Sections were collected at five levels of interest in the sagittal plane. All major tissues, organs, and biological fluids were represented. Collected sections were dried at ~-20 °C. A section set from each animal was prepared by mounting a representative section from each level of interest. Mounted sections were tightly wrapped with Mylar film and exposed on phosphor-imaging screens along with fortified blood standards for subsequent calibration of the image analysis software. Screens were exposed for 4 days. Exposed screens were scanned using a Typhoon scanner. The autoradiographic standard image data were sampled using InterFocus Imaging Ltd. MCIDTM Analysis software to create a calibrated standard curve. Specified tissues, organs, and fluids were analyzed. […] Tissue concentration data are presented in tabular format. Autoradiographs were annotated. The mean time concentration profile was generated for each group, and an overall AUC was then calculated with these sparse samples of rats and mice. […]

[2] = rat, in vivo, iv, 4 mg/kg
Source text: Male Sprague Dawley rats, intact or bile-cannulated, were from Envigo RMS, Inc. The animals were acclimated to study conditions for five days prior to dose administration. During acclimation, animals were individually housed in suspended, stainless steel, wire-mesh cages. During the test period, animals were placed in Nalgene cages designed for the collection of urine, feces, and bile. Certified Rodent Diet #2016C or 2016CM (Envigo RMS, Inc.) were provided ad libitum. Water was provided fresh daily. Environmental controls for the animal room were set to maintain a temperature of 20-26 °C, a relative humidity of 50 ± 20%, and a 12-hour light/12-hour dark cycle. […] The vehicle for the IV dose was 20% 2-hydroxypropyl-β-cyclodextrin (HP-β-CD) in 50 mM sodium acetate buffer, pH 4.0. […] The supernatant was removed, and the formulation appeared to be a very slight yellow solution. Stability was checked by HPLC analysis of pre- and post-dose aliquots. Animals were not fasted. The actual amount administered was determined by weighing the dose syringe before and after dose administration. The IV dose of 4 mg/kg was administered via a tail vein. For QWBA rats, one animal/time point was prepared for QWBA at approximately 0.25, 1, 4, 8, 24, 48, 168, and 336 hours. […] Blood was maintained on wet ice until being aliquoted for radioanalysis and centrifuged to obtain plasma. […] Each carcass was drained, blotted dry, placed into an appropriately labeled bag, and placed on dry ice or stored at ~-70 °C for at least 2 hours. The frozen carcasses were embedded in chilled carboxymethylcellulose and frozen into blocks. Embedded carcasses were stored at ~-20 °C in preparation for autoradiographic analysis. The samples were stored at -70 °C before analysis. […] All samples were analyzed for radioactivity in PerkinElmer Model 2910TR liquid scintillation counters for at least 5 min or 100,000 counts. Each sample was homogenized or mixed, as applicable, before radioanalysis in duplicate within 10% of the mean value. Scintillation counting data were automatically corrected for counting efficiency using the external standardization technique and an instrument-stored quench curve generated from a series of sealed quenched standards. […] The samples were allowed to sit at least overnight to allow any foaming to dissipate. Ultima Gold XR scintillation cocktail was added, and the samples were shaken and analyzed by liquid scintillation counting (LSC). Plasma was also analyzed by LSC. The urine, bile, cage rinse, and cage wash samples were mixed by shaking, and duplicate weighed aliquots were analyzed directly by LSC. The mean time concentration profile was generated for each group, and an overall AUC was then calculated with these sparse samples of rats and mice. […] The following parameters were estimated whenever possible: C0, Back-extrapolated concentration at time 0; Cmax, Maximum observed concentration; Tmax, Time of maximum observed concentration; AUC0-t, Area under the concentration-time curve from hour 0 to the last measurable concentration, estimated by the linear trapezoidal rule; AUC0-336, Area under the concentration-time curve from hour 0 to hour 336, estimated by the linear trapezoidal rule; DN AUC0-336, Dose normalized AUC0-336, calculated as AUC0-336/dose level; AUC0-∞, Area under the concentration-time curve from hour 0 to infinity (Day 1 only), calculated as follows: AUC0-∞ = AUC0-t + Ct/λz, where Ct is the last measurable concentration and λz is the elimination rate constant; t1/2, Elimination half-life, determined by ln(2)/λz; CL, Clearance, calculated as dose/AUC0-inf; Vd, Volume of distribution based on the terminal phase, calculated as: dose/(λz × AUC0-∞) Nominal doses and sampling times were used. […] Embedded zeros were excluded from kinetic analysis.

[3] = Bioavailability after PO administration (peer review reply); format: in vivo; conditions: authors' reply in peer review file

## Cc1ncsc1-c1ccc(C(C)NC(=O)C2CC(O)CN2C(=O)C(c2cc(N3CCC(CN4CCC(OC5CC(Oc6cc(N7C8CCC7CN(c7cc(-[14c]9[14cH][14cH][14cH][14cH][14c]9O)nnc7N)C8)ccn6)C5)CC4)CC3)no2)C(C)C)cc1 (stereo not shown) [14C-A947]
[1]
  Half-life (t1/2) in tissues: 87 to 100 h
  Radioactivity t1/2, brain cerebellum: 11 h
  Radioactivity t1/2, small intestine: 167 h
[1]; iv, 4 mg/kg
  Cmax, adrenal glands: 17 µg/g
  Cmax, kidneys: 22 µg/g
  Cmax, liver: 32 µg/g
  Cmax, lungs: 12 µg/g
  Cmax, pancreas: 9 µg/g
  Cmax, salivary glands: 12 µg/g
  Cmax, spleen: 21 µg/g
  Cmax, thyroid gland: 18 µg/g
  t½: 111 h
[2]
  AUC0–∞ in plasma and blood: ~ 18 µg h/g
  Cmax of radioactivity in blood: 1.13 µg/g
  Cmax of radioactivity in plasma: 1.22 µg/g
  Initial decrease of radioactivity in blood and plasma: greater than 90%
  Radioactivity in plasma and blood at 336 hours: 3 to 6 ng/g
  Terminal clearance (CL): ~ 5.8 mL/min/kg
  Terminal elimination half-life (t1/2) in plasma and blood: 72 to 75 h
  Tmax in blood and plasma: 0.25 h
  Volume of distribution (Vd): 23.9 L/kg

## Cc1ncsc1-c1ccc(C(C)NC(=O)C2CC(O)CN2C(=O)C(c2cc(N3CCC(CN4CCC(OC5CC(Oc6cc(N7C8CCC7CN(c7cc(-c9ccccc9O)nnc7N)C8)ccn6)C5)CC4)CC3)no2)C(C)C)cc1 (stereo not shown) [A947]
[3]
  Bioavailability after PO administration: did not find bioavailability
